In the supplement of paper PMC7224384:

Legend:
MDA-MB-453 [1] = test: drug sensitivity score (DSS), single agent (DSS (weighted AUC score)); higher = more sensitive (stronger viability decrease); extreme values may be limits of the assay; settings: BLU9931 0 nM; 72 h
Summary of the method: (§1)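 Cells of the MDA-MB-453 line (2000 per well) were added in medium, with or without 100 nM final FGFR4 inhibitor, to 384-well plates predispensed with FIMM Oncology set compounds at five 10-fold dilutions covering a 10,000-fold range. After 72 h at 37 °C, 5% CO2, CellTiterGlo 2.0 read cellular ATP. Percent viability came from per-plate normalisation to control wells, and the drug sensitivity score was defined as a weighted area under a four-parameter logistic fit.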

MDA-MB-453 [2] = test: drug sensitivity score (DSS), in combination with BLU9931 (DSS (weighted AUC score)); higher = more sensitive (stronger viability decrease); extreme values may be limits of the assay; settings: BLU9931 100 nM; 72 h
Summary of the method: as §1

Structure (SMILES) | drug sensitivity score (MDA-MB-453 [1]) | drug sensitivity score (MDA-MB-453 [2])
NC(=O)N1CCC(CC(=O)N2CCC([C@H]3c4ncc(Br)cc4CCc4cc(Cl)cc(Br)c43)CC2)CC1 [Lonafarnib] | 0 | 0
Cc1c(F)cc(C(=O)NC2CC2)cc1-c1ccc(C(=O)NCC(C)(C)C)cn1 [Losmapimod] | 0.4 | 1.4
CC[C@H](C)C(=O)O[C@H]1C[C@@H](C)C=C2C=C[C@H](C)[C@H](CC[C@@H]3C[C@@H](O)CC(=O)O3)[C@H]21 [Lovastatin] | 0 | 0
CNC(=O)c1cccc2cc(Oc3ccnc4cc(OCC5(N)CC5)c(OC)cc34)ccc12 [Lucitanib] | 2.9 | 0.9
CCNC(=O)c1noc(-c2cc(C(C)C)c(O)cc2O)c1-c1ccc(CN2CCOCC2)cc1 [Luminespib] | 18.1 | 19.7
O=C(O)CC[C@H]1CC[C@@](c2cc(F)ccc2F)(S(=O)(=O)c2ccc(Cl)cc2)CC1 [MK-0752] | 0.1 | 0
NC1(c2ccc(-c3nc4ccn5c(=O)[nH]nc5c4cc3-c3ccccc3)cc2)CCC1 [MK-2206] | 8.3 | 8.9
O=C(c1cccc(Cl)c1F)N1CCN(Cc2cccc(Nc3nccs3)n2)CC1 [MK-8745] | 5.4 | 2.4
Cn1cc(-c2cnn3c(N)c(Br)c([C@@H]4CCCNC4)nc23)cn1 [MK-8776] | 1.1 | 1.3
Cc1cnc(-c2ccccc2C(C)C)nc1NCc1ccc(-n2ccnn2)cc1 [ML323] | 0.4 | 0
O=C(CCNC(=O)c1ccc(OC(F)(F)F)cc1)N[C@@H]1CCCc2ccccc21 [ML390] | 5.2 | 3
O=C(Nc1cccc(NC(=O)c2cccc(O)c2O)c1)c1cccc(O)c1O [MST-312] | 10 | 9.7
CNC(=O)[C@@H](NC(=O)[C@H](CC(C)C)[C@H](O)C(=O)NO)C(C)(C)C [Marimastat] | 1.1 | 0.8
Cc1ccc(NC(=O)c2ccc(CN3CCN(C)CC3)cc2)cc1Nc1nc(-c2cccnc2)cs1 [Masitinib] | 3.1 | 1.8
CC(=O)O[C@]1(C(C)=O)CC[C@H]2[C@@H]3C=C(C)C4=CC(=O)CC[C@]4(C)[C@H]3CC[C@@]21C [Megestrol acetate] | 2.2 | 0
CCN(CC)CCCC(C)Nc1c2ccc(Cl)cc2nc2ccc(OC)cc12 (stereo not drawn) [Mepacrine] | 16.2 | 14.7
S=c1[nH]cnc2nc[nH]c12 [Mercaptopurine] | 10.9 | 0.7
Cc1ccc(C(=O)Nc2ccc(Oc3cc4cnn(C)c4cc3-c3cn[nH]c3)c(F)c2)c(=O)n1-c1ccc(F)cc1 [Merestinib] | 0 | 0
CN(C)C(=N)NC(=N)N [Metformin] | 0 | 0
CN(Cc1cnc2nc(N)nc(N)c2n1)c1ccc(C(=O)N[C@@H](CCC(=O)O)C(=O)O)cc1 [Methotrexate] | 1 | 0
C[C@H]1C[C@@H]2[C@H]([C@@H](O)C[C@@]3(C)[C@H]2CC[C@]3(O)C(=O)CO)[C@@]2(C)C=CC(=O)C=C12 [Methylprednisolone] | 5.2 | 0
CO[C@@H]1[C@H](N(C)C(=O)c2ccccc2)C[C@H]2O[C@]1(C)n1c3ccccc3c3c4c(c5c6ccccc6n2c5c31)C(=O)NC4 [Midostaurin] | 7.3 | 4.8
CNC(=O)c1nn(C)c2c1C(C)(C)Cc1cnc(Nc3ccc(N4CCN(C)CC4)cc3)nc1-2 [Milciclib] | 8.3 | 7.5
CCCCCCCCCCCCCCCCOP(=O)([O-])OCC[N+](C)(C)C [Miltefosine] | 2.7 | 3.9
